Source: US8993595B2, “Macrocyclic serine protease inhibitors” (priority 2009, dated 2015)

Key:
clinical = settings: human, in vivo; for AUC(0-inf): AUC0-∞
in vitro = settings: human, Caco-2, pH 7.4
Procedure: Caco-2 cells were grown to confluence on collagen-coated, microporous, polycarbonate membranes in 12-well Costar Transwell plates. 5 μM of compound 52 was prepared in Hanks balanced salt solution containing 10 mM HEPES and 15 mM glucose at a pH of 7.4. Cell monolayers were dosed on the apical side (A-to-B) or basolateral side (B-to-A). Samples were taken from the receiver chambers at 120 min and quantified by LC-MS/MS.

[1] = tested on: genotype 1b luciferase-replicon NS3 A156T
Procedure: (§1) The activity of compound 52 was evaluated against replicons bearing single protease inhibitor-resistance mutations as compared to its activity against the wild-type replicon. Mutations were introduced into a genotype 1b luciferase-replicon by site-directed mutagenesis. Compound activity was measured in cells transiently transfected with in vitro transcribed wild-type or mutant luciferase-replicon RNA by luciferase assay after 4-day treatment. Replication capacity was determined in untreated transfected cells by comparing the luciferase activity at 4 hrs and 4 days post-transfection.

[2] = tested on: genotype 1b luciferase-replicon NS3 D168A
Procedure: as §1

[3] = tested on: genotype 1b luciferase-replicon NS3 A156S
Procedure: as §1

[4] = tested on: genotype 1b luciferase-replicon NS3 D168E
Procedure: as §1

[5] = tested on: genotype 1b luciferase-replicon NS3 Q80R
Procedure: as §1

[6] = tested on: genotype 1b luciferase-replicon NS3 R155Q
Procedure: as §1

[7] = tested on: genotype 1b luciferase-replicon NS3 R155K
Procedure: as §1

[8] = tested on: genotype 1b luciferase-replicon NS3 D168Y
Procedure: as §1

[9] = tested on: genotype 1b luciferase-replicon NS3 T54A
Procedure: as §1

[10] = tested on: genotype 1b luciferase-replicon NS3 D168V
Procedure: as §1

NS3-4A (Con1) = NS3-4A (Con1) (Hepatitis C virus genotype 1b, UniProt Q9WMX2); assay: Binding kinetics by surface plasmon resonance; set-up: species or system HCV
Procedure: The binding kinetics of compound 52 to NS3-4A (Con1) was also determined using surface plasmon resonance.

monkeys = settings: oral doses up to 250 mg/kg
Procedure: (§2) Daily oral doses of compound 52 (up to 250 mg/kg/day) in PEG 400 were administered to both mice and monkeys for 28 consecutive days. Toxicity was evaluated based on mortality, clinical observations, body weights, food consumption, ophthalmological examination, hematology and serum chemistry, organ weights, gross and microscopic examinations. ECG, coagulation and urinalysis were also performed in the monkey study.

mice = settings: mouse, in vivo
Procedure: as §2

[11] = target: T1, HCV NS3-4A Protease Genotype 3a (Hepatitis C virus genotype 3a, UniProt Q81258); assay: HCV protease assay, recombinant NS3-4A genotype 3a; format: biochemical; settings: mean ± SD, 3 experiments
T1 construct: recombinant HCV NS3-4A proteases
Procedure: The compounds were tested at a variety of concentrations in assay buffer containing a final DMSO concentration of 5%. Reactions were allowed to proceed for 60 min at room temperature and fluorescence measurements were recorded with a Tecan Infinity Spectrofluorimeter. The IC50 values were determined from the percent inhibition versus concentration data using a sigmoidal non-linear regression analysis based on four parameters with Tecan Magellan software.
Compound 52 was tested against genotypes 1a, 1b, 2a, 3a, and 4a of recombinant HCV NS3-4A proteases, along with other cellular proteases.

[12] = tested on: D-1a cell line (genotype 1a replicon selected with 25 nM, D168A); assay: Extent of resistance after selection, D-1a; format: cell-based, HCV; settings: selecting conc. 25 nM
Procedure: (§3) Replicon cells (genotype 1a or 1b) were treated with various concentrations of compound 52 in the presence of G418. Treatment-emergent genotypic changes were identified by population sequencing of NS3 (both protease and helicase regions). The activity of compound 52 and other compounds was evaluated by NS5A western blot after selection or luciferase assay during and after selection.

human CYP450 2D6 = target: T2, human CYP450 2D6 (Homo sapiens, UniProt P10635); assay: CYP450 inhibition assay, 2D6; format: in vitro ADME
T2 construct: purchased BD Bioscience
Procedure: (§4) Compound 52 was incubated with human CYP450 cDNA-expressed isoenzymes according to the protocol (BD Bioscience). For CYP2C9, a luminogenic substrate was used with the P450-Glo™ kit. In addition, the effect of the compound on CYP2C9-mediated diclofenac metabolism was measured by LC-UV. The potential inhibitory effect of the compound on human UGT1A1 was examined using human liver microsomes and bilirubin as substrate. The metabolites (mono- and di-glucuronidated bilirubin) were measured by LC-UV.

[13] = tested on: B-1a cell line (genotype 1a replicon selected with 10 nM, D168A); assay: Extent of resistance after selection, B-1a; format: cell-based, HCV; settings: selecting conc. 10 nM
Procedure: as §3

[14] = tested on: Zluc cell line (genotype 1b replicon with luciferase, unselected); assay: Extent of resistance after selection, luciferase assay, Zluc; format: cell-based, HCV; settings: selecting conc. 0 nM, EC50 resistant / EC50 wild-type
Procedure: as §3

human UGT1A1 = target: T3, human UGT1A1 (Homo sapiens, UniProt P22309); assay: UGT1A1 inhibition assay; format: in vitro ADME; settings: human liver microsomes, bilirubin as substrate
T3 construct: examined using human liver microsomes and bilirubin as substrate; from tissue; host or cells: human liver microsomes
Procedure: as §4

[15] = 50 mg, single dose 50 mg, human volunteers
[16] = 100 mg, single dose 100 mg, human volunteers
[17] = 200 mg, single dose 200 mg, HCV patients, N = 2
[18] = 200 mg, single dose 200 mg, human volunteers
[19] = 400 mg, single dose 400 mg Fasted, human volunteers
[20] = 400 mg, single dose 400 mg, human volunteers

## COc1ccc2c(O[C@H]3CCN4C(=O)N(C)CCCC/C=C\[C@@H]5C[C@@]5(C(=O)NS(=O)(=O)C5(C)CC5)NC(=O)[C@@H]4C3)cc(-c3nc(C(F)(F)F)cs3)nc2c1C [Compound 52, 1-methyl-cyclopropanesulfonic acid{(Z)-(1S,4R,6S,18S)-18-[7-methoxy-8-methyl-2-(4-trifluoromethyl-thiazol-2-yl)-quinolin-4-yloxy]-13-methyl-2,14-dioxo-3,13,15-triaza-tricyclo[13.4.0.0*4,6*]nonadec-7-ene-4-carbonyl}amide]
clinical; [15]
  AUC(0-inf): 2020 ± 744 ng·h/mL
  Cmax: 346 ± 87 ng/mL
  Tmax: 3 h
clinical; 50 mg, T1/2, single dose 50 mg, human volunteers
  half-life: 13 ± 6 h
clinical; [16]
  AUC(0-inf): 3540 ± 1010 ng·h/mL
  Cmax: 467 ± 72 ng/mL
  Tmax: 3 h
clinical; 100 mg, T1/2, single dose 100 mg, human volunteers
  half-life: 24 ± 7 h
clinical; [17]
  AUC(0-inf): 13900 ng·h/mL
  Cmax: 1060 ng/mL
  Tmax: 3.5 h
clinical; [18]
  AUC(0-inf): 7240 ± 2930 ng·h/mL
  Cmax: 982 ± 463 ng/mL
  Tmax: 3 h
clinical; 200 mg, T1/2, single dose 200 mg, HCV patients, N = 2
  half-life: 32 h
clinical; 200 mg, T1/2, single dose 200 mg, human volunteers
  half-life: 26 ± 7 h
clinical; 400 mg
  AUC(0-inf): 9460 ± 2330 ng·h/mL
clinical; [19]
  AUC(0-inf): 4190 ± 1590 ng·h/mL
  Cmax: 368 ± 89 ng/mL
  Tmax: 3 h
clinical; [20]
  Cmax: 1120 ± 505 ng/mL
  Tmax: 3 h
clinical; 400 mg, T1/2, single dose 400 mg Fasted, human volunteers
  half-life: 15 ± 8 h
clinical; 400 mg, T1/2, single dose 400 mg, human volunteers
  half-life: 25 ± 7 h
In vitro
  Papp: 1.8 ×10⁻⁶ cm/s
  efflux ratio: 2.7
[1]
  Fold-Change: 27.1 ± 9.5
[2]
  Fold-Change: 575 ± 210
[3]
  Fold-Change: 0.5 ± 0.1
[4]
  Fold-Change: 41.4 ± 17.8
[5]
  Fold-Change: 5.7 ± 0.9
[6]
  Fold-Change: 0.6 ± 0.09
[7]
  Fold-Change: 9.0 ± 1.7
[8]
  Fold-Change: 1107 ± 513
[9]
  Fold-Change: 1.4 ± 0.2
[10]
  Fold-Change: 4587 ± 1003
NS3-4A (Con1); read-out: association rate
  kon: 27000 M⁻¹ s⁻¹
NS3-4A (Con1); read-out: dissociation rate
  koff: 2.1e-05 s⁻¹
NS3-4A (Con1); read-out: equilibrium constant
  Kd: 0.8 nM
monkeys
  tolerability in 4-week GLP toxicology study: well tolerated
mice
  tolerability in 4-week GLP toxicology study: well tolerated
[11]
  IC50: 23 ± 1.9 nM
[12]
  Fold-Change: >2750
Human CYP450 2D6
  IC50: ≥ 10000 nM
[13]
  Fold-Change: >3690
[14]
  Fold-Change: 1
Human UGT1A1
  IC50: ≥ 10000 nM
